From patent publication EP4678629A1, “IONIZABLE LIPID MOLECULE, PREPARATION METHOD THEREFOR AND USE THEREOF” (Maxirna (Shanghai) Pharmaceutical Co., Ltd., priority 2023, dated 2024)

Columns and labels:
[1] = Size and polydispersity index (PDI) of the lipid nanoparticle by dynamic light scattering; type: physicochemical; conditions: LNP encapsulating eGFP mRNA, ionizable lipid/DOPE/cholesterol/DMG-PEG2000 50/10/48.25/1.25 mol%, N/P 12; for Particle size: in nm (unit assumed)
Method in brief: (§1)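 LNPs were made by microfluidic mixing of ionizable lipid/DOPE/cholesterol/DMG-PEG2000 (50/10/48.25/1.25 mol%) in ethanol with eGFP mRNA in 20 mM citrate pH 6.1, N/P 12, then ultrafiltered into DPBS and 0.2 µm filtered. Size and PDI by DLS at 173° backscatter; encapsulation by Ribogreen.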

[2] = Encapsulation efficiency of the lipid nanoparticle (eGFP mRNA) by Ribogreen method; type: physicochemical; conditions: LNP encapsulating eGFP mRNA, ionizable lipid/DOPE/cholesterol/DMG-PEG2000 50/10/48.25/1.25 mol%, N/P 12
Method in brief: as §1

[3] = In vitro transfection of cells with eGFP-mRNA lipid nanoparticle (LNP preparation), fluorescence imaging and flow cytometry; type: cell-based, mouse; conditions: mouse, dc2.4 cells, 200 ng of mRNA per well, after 24 hours; read-out: Cell viability, %
Method in brief: (§2)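 Mouse bone marrow-derived DC2.4 dendritic cells seeded at 2 × 10^5 cells/well in DMEM with 10% FBS, transfected with eGFP-mRNA LNPs the next day at 37 °C, 5% CO2. After 24 hours, viability, eGFP-positive rate and mean fluorescence intensity read by fluorescence imaging and flow cytometry.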

[4] = tested on: DC2.4 cells; experiment: as above; type: cell-based, mouse; conditions: eGFP positivity rate, DC2.4 cells, 200 ng of mRNA per well, after 24 hours
Method in brief: as §2

SMILES	PDI [1]	Particle size [1]	Encapsulation rate, % [2] [%]	viability at 24 h [3] [%]	Positive rate, % [4] [%]
CCCCCCCCCCCCCOC(=O)CCCN(CCO)CCCN(CCCC(=O)OCCCCCCCCCCCCC)CCCC(=O)OCCCCCCCCCCCCC [Example 62, Ditridecyl 4,4'-((3-((2-hydroxyethyl)(4-oxo-4-(tridecyloxy)butyl)amino)propyl)azanediyl)dibutanoate]	0.16	99.80	99.32	59	96.24
CCCCCCCCCCCCCOC(=O)CCCN(CCCO)CCCN(CCCC(=O)OCCCCCCCCCCCCC)CCCC(=O)OCCCCCCCCCCCCC [Example 63, Ditridecyl 4,4'-((3-((3-hydroxypropyl)(4-oxo-4-(tridecyloxy)butyl)amino)propyl)azanediyl)dibutanoate]	0.15	84.74	97.68	63.4	92.85
CCCCCCCCCCCOC(=O)CCCN(CCCO)CCCN(CCCC(=O)OCCCCCCCCCCC)CCCC(=O)OCCCCCCCCCCC [Example 64, Diundecyl 4,4'-((3-((3-hydroxypropyl)(4-oxo-4-(undecyloxy)butyl)amino)propyl)azanediyl)dibutanoate]	0.19	90.58	98.93	64.6	99.18
CCCCCCCCCCCCCOC(=O)CCCN(CCCCO)CCCN(CCCC(=O)OCCCCCCCCCCCCC)CCCC(=O)OCCCCCCCCCCCCC [Example 65, Ditridecyl 4,4'-((3-((4-hydroxybutyl)(4-oxo-4-(tridecyloxy)butyl)amino)propyl)azanediyl)dibutanoate]	0.20	90.10	96.31	60.3	96.80
CCCCCCCCCCCOC(=O)CCCN(CCCCO)CCCN(CCCC(=O)OCCCCCCCCCCC)CCCC(=O)OCCCCCCCCCCC [Example 66, Diundecyl 4,4'-((3-((4-hydroxybutyl)(4-oxo-4-(undecyloxy)butyl)amino)propyl)azanediyl)dibutanoate]	0.14	–	94.12	76.7	98.63
CCCCCCCCCCCOC(=O)CCN(CCO)CCCN(CCC(=O)OCCCCCCCCCCC)CCC(=O)OCCCCCCCCCCC [Example 67, Diundecyl 3,3'-((3-((2-hydroxyethyl)(3-oxo-3-(undecyloxy)propyl)amino)propyl)azanediyl)dipropionate]	0.20	86.08	66.08	95.8	98.32
CCCCCCCCCCCOC(=O)CCN(CCCO)CCCN(CCC(=O)OCCCCCCCCCCC)CCC(=O)OCCCCCCCCCCC [Example 68, Diundecyl 3,3'-((3-((3-hydroxypropyl)(3-oxo-3-(undecyloxy)propyl)amino)propyl)azanediyl)dipropionate]	0.18	–	95.99	94.9	98.77
CCCCCCCCCCCOC(=O)CCN(CCCCO)CCCN(CCC(=O)OCCCCCCCCCCC)CCC(=O)OCCCCCCCCCCC [Example 69, Diundecyl 3,3'-((3-((4-hydroxybutyl)(3-oxo-3-(undecyloxy)propyl)amino)propyl)azanediyl)dipropionate]	0.13	–	85.47	91.9	97.10
CCCCCCCCCCCCCOC(=O)CCN(CCO)CCCN(CCC(=O)OCCCCCCCCCCCCC)CCC(=O)OCCCCCCCCCCCCC [Example 70, Ditridecyl 3,3'-((3-((2-hydroxyethyl)(3-oxo-3-(tridecyloxy)propyl)amino)propyl)azanediyl)dipropionate]	0.11	–	97.26	91.2	99.07
CCCCCCCCCCCCCOC(=O)CCN(CCCO)CCCN(CCC(=O)OCCCCCCCCCCCCC)CCC(=O)OCCCCCCCCCCCCC [Example 71, Ditridecyl 3,3'-((3-((3-hydroxypropyl)(3-oxo-3-(tridecyloxy)propyl)amino)propyl)azanediyl)dipropionate]	85.88	98.30	98.30	97.3	98.99
CCCCCCCCCCCCCOC(=O)CCN(CCCCO)CCCN(CCC(=O)OCCCCCCCCCCCCC)CCC(=O)OCCCCCCCCCCCCC [Example 72, Ditridecyl 3,3'-((3-((4-hydroxybutyl)(3-oxo-3-(tridecyloxy)propyl)amino)propyl)azanediyl)dipropionate]	–	99.70	99.70	84	81.19
CCCCCCCCCCCOC(=O)CN(CCO)CCCN(CC(=O)OCCCCCCCCCCC)CC(=O)OCCCCCCCCCCC [Example 73, Diundecyl 2,2'-((3-((2-hydroxyethyl)(2-oxo-2-(undecyloxy)ethyl)amino)propyl)azanediyl)diacetate]	–	85.54	85.54	84.1	97.94
CCCCCCCCCCCOC(=O)CN(CCCO)CCCN(CC(=O)OCCCCCCCCCCC)CC(=O)OCCCCCCCCCCC [Example 74, Diundecyl 2,2'-((3-((3-hydroxypropyl)(2-oxo-2-(undecyloxy)ethyl)amino)propyl)azanediyl)diacetate]	–	96.91	96.91	71	91.81
CCCCCCCCCCCOC(=O)CN(CCCCO)CCCN(CC(=O)OCCCCCCCCCCC)CC(=O)OCCCCCCCCCCC [Example 75, Diundecyl 2,2'-((3-((4-hydroxybutyl)(2-oxo-2-(undecyloxy)ethyl)amino)propyl)azanediyl)diacetate]	60.95	99.22	99.22	90.3	91.29
CCCCCCCCCCCCCOC(=O)CN(CCO)CCCN(CC(=O)OCCCCCCCCCCCCC)CC(=O)OCCCCCCCCCCCCC [Example 76, Ditridecyl 2,2'-((3-((2-hydroxyethyl)(2-oxo-2-(tridecyloxy)ethyl)amino)propyl)azanediyl)diacetate]	–	74.60	96.23	95	98.01
CCCCCCCCCCCCCOC(=O)CN(CCCO)CCCN(CC(=O)OCCCCCCCCCCCCC)CC(=O)OCCCCCCCCCCCCC [Example 77, Ditridecyl 2,2'-((3-((3-hydroxypropyl)(2-oxo-2-(tridecyloxy)ethyl)amino)propyl)azanediyl)diacetate]	70.33	99.78	99.78	83.9	90.71
CCCCCCCCCCCCCOC(=O)CN(CCCCO)CCCN(CC(=O)OCCCCCCCCCCCCC)CC(=O)OCCCCCCCCCCCCC [Example 78, Ditridecyl 2,2'-((3-((4-hydroxybutyl)(2-oxo-2-(tridecyloxy)ethyl)amino)propyl)azanediyl)diacetate]	53.66	99.86	99.86	91.7	81.35
CCCCC/C=C\C/C=C\CCCCCCCCOC(=O)CCCN(CCO)CCCN(CCCC(=O)OCCCCCCCC/C=C\C/C=C\CCCCC)CCCC(=O)OCCCCCCCC/C=C\C/C=C\CCCCC [Example 80, Di((9Z,12Z)-octadeca-9,12-dien-1-yl)4,4'-((3-((2-hydroxyethyl)(4-(((9Z,12Z)-octadeca-9,12-dien-1-yl)oxo)-4-oxobutyl)amino)propyl)azanediyl)dibutanoate]	–	99.14	99.14	87.3	94.60
CCCCCCCCCCCOC(=O)CCCN(CCCO)CCCCN(CCCC(=O)OCCCCCCCCCCC)CCCC(=O)OCCCCCCCCCCC [Example 82, Diundecyl 4,4'-((4-((3-hydroxypropyl)(4-oxo-4-(undecyloxy)butyl)amino)butyl)azanediyl)dibutanoate]	92.91	99.74	99.74	76	96.72
CCCCCCCCCCCOC(=O)CCCN(CCCO)CCCCCN(CCCC(=O)OCCCCCCCCCCC)CCCC(=O)OCCCCCCCCCCC [Example 83]	73.54	99.79	99.79	84.2	97.05
CCCCCCCCCCOC(=O)CCCN(CCCO)CCCCN(CCCC(=O)OCCCCCCCCCC)CCCC(=O)OCCCCCCCCCC [Example 86]	0.13	88.62	94.50	93	94.18
CCCCCCCCCCCOC(=O)CCCN(CCO)CCCCN(CCCC(=O)OCCCCCCCCCCC)CCCC(=O)OCCCCCCCCCCC [Example 87]	0.12	72.55	92.26	97.5	96.15
